The values below come from PMC12432378 (Cell Reports Medicine, 2025).

Assay [1] deals with MjHKU4r-S. The assay is classed as cell-based, MjHKU4r-CoV-1. The note with it: for IC50: read-out: IC50 against MjHKU4r-S-mediated cell-cell fusion.
Assay [2] deals with authentic MjHKU4r-CoV-1. The assay is classed as cell-based.
The subject of assay [3] is MjHKU4r-CoV-1 PsV. The note with it: for IC50: 48 h.
Assay [4] has as its system authentic MjHKU4r-CoV-1. As to conditions: 72 h.
Assay [5] has as its system MERS-CoV PsV. The note with it: 48 h.
Assay [6] concerns pseudotyped SARS-CoV-2 (Delta). The note with it: pseudotyped (Delta, 48 h).
Assay [7] deals with pseudotyped SARS-CoV-2 (KP.2). The note with it: pseudotyped (KP.2, 48 h).
In assay [8] the test system is authentic HCoV-OC43.
Assay [9] relates to HCoV-OC43. Details: species or system newborn ICR mice. The note with it: mouse, in vivo.

SMILES strings stand for the structures. Positions of bridges follow the written chain, without caps; N, C: chain ends. Non-standard residues stand in square brackets, D forms with d. Residues, ends and D or L forms follow the SMILES beside them. S5 = C=CCCC[C@](C)(N)C(=O)O Some results are limits rather than exact numbers.

A word on the IC50: it is the concentration needed to halve the response being measured. As to `CC[C@H](C)[C@H](NC(=O)[C@H](C)NC(=O)[C@H](CCSC)NC(=O)[C@H](CCC(=O)O)NC(=O)[C@H](CC(=O)O)NC(=O)[C@H](CO)NC(=O)[C@H](CC(C)C)NC(=O)[C@H](CC(=O)O)NC(=O)[C@H](CC(C)C)NC(=O)[C@H](CC(C)C)NC(=O)[C@@H](NC(=O)[C@@H](NC(=O)[C@H](CC(N)=O)NC(=O)[C@@H](NC(=O)[C@H](CCCCN)NC(=O)[C@H](CO)NC(=O)[C@@H](NC(=O)[C@H](CCC(=O)O)NC(C)=O)[C@@H](C)CC)[C@@H](C)CC)[C@@H](C)O)[C@@H](C)O)C(=O)N[C@@H](CC(C)C)C(=O)N[C@@H](CCC(N)=O)C(=O)N[C@@H](CCC(=O)O)C(=O)N[C@H](C(=O)N[C@H](C(=O)N[C@@H](CCCCN)C(=O)N[C@@H](CCC(N)=O)C(=O)N[C@@H](CC(C)C)C(=O)N[C@@H](CC(N)=O)C(=O)N[C@@H](CC(=O)O)C(=O)N[C@@H](CO)C(=O)N[C@@H](Cc1ccc(O)cc1)C(=O)N[C@H](C(=O)N[C@@H](CC(=O)O)C(=O)N[C@@H](CC(C)C)C(=O)N[C@@H](CCCCN)C(=O)N[C@@H](CCC(=O)O)C(=O)N[C@@H](CC(C)C)C(N)=O)[C@@H](C)CC)C(C)C)C(C)C` [MjHKU4r-HR2P], the “Inhibition of MjHKU4r-S-mediated cell-cell fusion at fixed concentration” value in assay [1] was “completely inhibited”. Besides, the IC50 in [1] worked out at 37 nM; in assay [3], 62 nM; in assay [4] it was 26 nM. For the same compound, in assay [2], the “Blockage of MjHKU4r-CoV-1 N protein expression (immunofluorescence)” value is “near-complete blockage”.
`CSCC[C@H](NC(=O)[C@H](C)NC(=O)CNC(=O)[C@H](CC(C)C)NC(=O)[C@H](C)NC(=O)[C@H](CCC(N)=O)NC(=O)[C@H](CC(N)=O)NC(=O)[C@H](Cc1ccccc1)NC(=O)[C@H](CCCCN)NC(=O)[C@H](CC(N)=O)NC(=O)[C@H](C)NC(C)=O)C(=O)N[C@@H](CCC(N)=O)C(=O)N[C@H](C(=O)NCC(=O)N[C@@H](Cc1ccccc1)C(=O)N[C@H](C(=O)N[C@H](C(=O)N[C@@H](CO)C(=O)N[C@@H](CC(N)=O)C(=O)N[C@@H](CC(C)C)C(=O)N[C@@H](C)C(=O)N[C@@H](Cc1ccccc1)C(=O)N[C@@H](CO)C(=O)N[C@@H](CCCCN)C(=O)N[C@H](C(=O)N[C@@H](CCC(N)=O)C(=O)N[C@@H](CC(=O)O)C(=O)N[C@@H](C)C(=O)N[C@H](C(=O)N[C@@H](CC(N)=O)C(=O)N[C@@H](C)C(=O)N[C@@H](CC(N)=O)C(=O)N[C@@H](C)C(=O)N[C@@H](CC(N)=O)C(=O)N[C@@H](C)C(=O)N[C@@H](CC(C)C)C(=O)N[C@@H](CO)C(=O)N[C@@H](CCCCN)C(=O)N[C@@H](CC(C)C)C(=O)N[C@@H](C)C(=O)N[C@@H](CO)C(=O)N[C@@H](CCC(=O)O)C(N)=O)C(C)C)C(C)C)[C@@H](C)O)[C@@H](C)O)[C@@H](C)O` [MjHKU4r-HR1P]: the values for the IC50 in assay [3] and in assay [4] were over 10000 nM and over 5000 nM, respectively.
For the compound `CC[C@H](C)[C@H](NC(=O)[C@H](C)NC(=O)[C@H](CCSC)NC(=O)[C@H](CCC(=O)O)NC(=O)[C@H](CC(=O)O)NC(=O)[C@H](CO)NC(=O)[C@H](CC(C)C)NC(=O)[C@H](CC(=O)O)NC(=O)[C@H](CC(C)C)NC(=O)[C@H](CC(C)C)NC(=O)[C@@H](NC(=O)[C@@H](NC(=O)[C@H](CC(N)=O)NC(=O)[C@@H](NC(=O)[C@H](CCCCN)NC(=O)[C@H](CO)NC(=O)[C@@H](NC(=O)[C@H](CCC(=O)O)NC(C)=O)[C@@H](C)CC)[C@@H](C)CC)C(C)C)[C@@H](C)O)C(=O)N[C@@H](CC(C)C)C(=O)N[C@@H](CC(C)C)C(=O)N[C@@H](CCC(=O)O)C(=O)N[C@@H](C)C(=O)N[C@H](C(=O)N[C@@H](CCCCN)C(=O)N[C@@H](CCC(N)=O)C(=O)N[C@@H](CC(C)C)C(=O)N[C@@H](CC(N)=O)C(=O)N[C@@H](CC(=O)O)C(=O)N[C@@H](CO)C(=O)N[C@@H](Cc1ccc(O)cc1)C(=O)N[C@H](C(=O)N[C@@H](CC(=O)O)C(=O)N[C@@H](CC(C)C)C(=O)N[C@@H](CCCCN)C(=O)N[C@@H](CCC(=O)O)C(=O)N[C@@H](CC(C)C)C(N)=O)[C@@H](C)CC)[C@@H](C)CC` [MjHKU4r-HR2P9], the IC50 in [1] is 10.3 nM; in [3] it was 26 nM; in assay [5], 114 nM; in assay [6] it was 408 nM; in assay [7], 460 nM; in [8], 1020 nM. Further, the “Improvement in inhibition of pseudotyped MjHKU4r-CoV-1 infection compared to original MjHKU4r-HR2P” value in assay [3] is given as 2.9 fold.
In assay [9], `CC[C@H](C)[C@H](NC(=O)[C@H](C)NC(=O)[C@H](CCSC)NC(=O)[C@H](CCC(=O)O)NC(=O)[C@H](CC(=O)O)NC(=O)[C@H](CO)NC(=O)[C@H](CC(C)C)NC(=O)[C@H](CC(=O)O)NC(=O)[C@H](CC(C)C)NC(=O)[C@H](CC(C)C)NC(=O)[C@@H](NC(=O)[C@@H](NC(=O)[C@H](CC(N)=O)NC(=O)[C@@H](NC(=O)[C@H](CCCCN)NC(=O)[C@H](CO)NC(=O)[C@@H](NC(=O)[C@H](CCC(=O)O)NC(C)=O)[C@@H](C)CC)[C@@H](C)CC)C(C)C)[C@@H](C)O)C(=O)N[C@@H](CC(C)C)C(=O)N[C@@H](CC(C)C)C(=O)N[C@@]1(C)CCCC=CCCC[C@@](C)(C(=O)N[C@@H](CC(C)C)C(=O)N[C@@H](CC(N)=O)C(=O)N[C@@H](CC(=O)O)C(=O)N[C@@H](CO)C(=O)N[C@@H](Cc2ccc(O)cc2)C(=O)N[C@H](C(=O)N[C@@H](CC(=O)O)C(=O)N[C@@H](CC(C)C)C(=O)N[C@@H](CCCCN)C(=O)N[C@@H](CCC(=O)O)C(=O)N[C@@H](CC(C)C)C(N)=O)[C@@H](C)CC)NC(=O)[C@H](CCCCN)NC(=O)[C@H]([C@@H](C)CC)NC(=O)[C@H](C)NC1=O` [MjHKU4r-HR2P10] (Ac-EISKINVTLLDLSDEMAILL[S5]AIK[S5]LNDSYIDLKEL-NH2; staple 21-25) came in with a Survival rate of 66.7%. In addition, the IC50 was 37.2 nM in assay [5], 115 nM in assay [6], 85.9 nM in assay [7] and 480 nM in assay [8].
